Test results published in patent US20080081078A1, “Prevention of Cell Proliferation by Inhibiting Myosin Light Chain Kinase” (The Board of Trustees of the University of Illinois, priority 2006, published 2008).

Columns and labels:
[1] = test system: MLC20 phosphorylation; assay: MLC20 phosphorylation by urea gel/Western blotting in smooth muscle cells (SMC); format: cell-based, pig; details: 24 hrs, 10 μM Dex, 10 μM ActD, 100 μM Chx, 2 μM Cam, 100 μM Eto
Protocol: NIH 3T3 fibroblasts were obtained from ATCC and were grown in Dulbecco's Modified Eagle Medium (DMEM) (Gibco BRL, Gaithersburg, Md.) supplemented with 10% FBS and 1% penicillin and streptomycin in a 37° C. incubator. 3T3 cells were treated with 500 nM actinomycin D in DMEM containing 0.5% FBS without antibiotics for the 0, 2, 4, 8, 16, or 24 hours. Cells were then washed with phosphate buffered saline (PBS). Floating cells were collected by centrifugation and combined with attached cells that were harvested by trypsinization. MLC20 phosphorylation was quantified be Western blotting with an anti-MLC20 antibody (FIG. 1). In short, the harvested cells were treated with ice cold 10% TCA, 10 mM DTT to precipitate the cellular proteins. The pellets were washed with acetone, dissolved in 9 M urea, 10 mM DTT, 20 mM Tris, pH 7.5 and separated using glycerol-urea polyacrylamide gel electrophoresis (PAGE). The proteins were transferred to nitrocellulose, the un-, mono-, and di-phosphorylated forms of MLC20 were identified using an affinity purified antibody to MLC20 and horseradish peroxidase-linked secondary antibody (Jackson ImmunoResearch, West Grove, Pa.). Protein bands were visualized with ECL reagent and the stoichiometry of phosphorylation (mol PO4/mol MLC20) was calculated as described (Obara et al., 1989, “Okadaic acid, a phosphatase inhibitor, produces a Ca2+ and calmodulin-independent contraction of lamb tracheal smooth muscle,” Pfluger's Archiv. 414: 134-138).
The stoichiometry of MLC20 phosphorylation (FIG. 1B, inset) was quantified using the urea gel/Western blotting method described above in untreated (Un) pig pulmonary artery smooth muscle cells (SMC) and SMC treated with 10 μM dexamethasone (Dex), 10 μM actinomycin D (ActD), 100 μM cycloheximide (Chx), 2 μM camptothecin (Cam), and 100 μM etoposide (Eto) for 24 hrs (mean+/−SE, n=3).
Next, in order to determine whether MLC-DP can trigger cell death, SMC were treated with ML-7 or KT5926, two inhibitors of MLCK (Nakanishi et al., 1990; Garcia, 1998; and Bain et al., 2003).
SMC cells were either treated with 10 μM cytochalasin D (CytD) or grown on the non-ionic substrate polyHema to prevent attachment.

[2] = test system: MLC-P; assay: MLC-P by urea/glycerol gel immunoblotting in MLL cells; format: cell-based, rat; details: 5 μM ML-7, 30 μM etoposide or both
[3] = test system: Mm5MT cells
Protocol: To investigate the anticancer activity of ML-7 in vivo, Mm5MT cells grown in culture were harvested immediately before injection into syngeneic MMTV-C3H/HeN mice. Cells were washed to remove serum and 10^6 cells were resuspended in 100 μl of serum-free DMEM. Healthy, MMTV-free female mice (14-20 weeks old) were anesthetized with ether and 10^6 cells were injected subcutaneously into the right flank. The mice were randomly divided into four groups of five mice each, and treated with vehicle, ML-7, etoposide or ML-7 plus etoposide. […] To deliver ML-7, a small horizontal incision was made in the interscapular area and a 200 μl osmotic pump (Alzet, Cupertino, Calif.) filled with either 27 mM ML-7 in 50% DMSO or 50% DMSO (vehicle control) was implanted and the wound closed. When given, 25 mg/kg etoposide was injected intraperitoneally on the first 3 days of every week for 4 weeks (days 7-9, 14-16, 21-23 and 28-30). The mice were sacrificed with ether after 4 weeks of drug administration and tumors were removed, weighed and processed for analysis.
Excised tumors were gently patted dry and weighed using a Mettler digital balance. Tumors were sectioned into 2 mm slices, fixed in 10% neutral buffered formalin, routinely processed and embedded in paraffin. […] Photomicrographs documenting the entire section were collected and areas of necrotic and viable tumor were determined using the manual tracing tools within MetaMorph 6.2 (Universal Imaging Corporation, Downingtown, Pa.).

[4] = test system: MLL cells; assay: MLL prostate tumor in Copenhagen rats, ML-7 and/or etoposide; format: in vivo
Protocol: To determine whether ML-7 stimulated the ability of etoposide to induce apoptosis and retard tumor growth more generally in tumor cells, the effects of ML-7 and etoposide on MLL prostate cancer cells were examined. MLL cells grown in culture were harvested and washed in serum-free Hank's buffer. The cells were suspended in 500 μl serum-free Hank's media and 10^6 cells were injected subcutaneously into the right flank of 12-week old male Copenhagen rats anesthetized with ether. […] Rats were randomly divided into four groups, five in each group, and received injections of ML-7 or vehicle via the jugular vein every 4 days for 2 weeks. ML-7 was used at the dose of 35 mg/kg. In mice receiving etoposide the drug was injected IP at the maximum tolerant dose of 50 mg/m^2 daily. Rats were sacrificed with ether 14 days after the start of drug treatment, and tumors removed, weighed and processed as described below.
To test the anticancer effect of ML-7 in a rat prostate cancer model, ML-7 or vehicle was administered by intrajugular injection, and etoposide administered by intraperitoneal injection. Male Copenhagen rats were inoculated with MLL cells as described above. […] The rats were sacrificed after 14 days of drug treatment and tumor weight and body weight were recorded.
Tumor sections were deparaffinized and rehydrated according to standard procedures. […]

In the case of `COc1cc([C@@H]2c3cc4c(cc3[C@@H](O[C@@H]3O[C@@H]5CO[C@@H](C)O[C@H]5[C@H](O)[C@H]3O)[C@H]3COC(=O)[C@H]23)OCO4)cc(OC)c1O` [etoposide], the MLC20 phosphorylation [1] is reported as “dephosphorylated”, the MLC-P [2] is reported as “smaller decrease in MLC-P” and the “tumor necrosis (histology)” value ([3]; FIG. 14B) is reported as “Limited areas of necrosis”. The tolerability ([3]; mouse, in vivo) was “without visible signs of discomfort”, the tumor growth ([3]; single agents vs vehicle, only the etoposide effect statistically significant) was “decreased tumor growth” and the “TUNEL positive nuclei in tumors” value ([4]; 300 cells, MLL tumors in rats (FIG. 17)) was 35.8%. The “decrease in tumor weight vs vehicle control” value ([4]; rats, ML-7 35 mg/kg jugular vein every 4 days, etoposide 50 mg/m^2 IP daily, 14 days) was 43.3%.
